Results reported in patent US20230040357A1, “PHARMACEUTICAL COMPOSITION AND HEALTH FUNCTIONAL FOOD FOR PREVENTING, AMELIORATING OR TREATING DIABETES CONTAINING WASP EXTRACT AS ACTIVE INGREDIENT” (Andong National University Industry-Academic cooperation …, priority 2021, published 2023).
Where “and” joins values, the source holds several entries; their conditions need not be identical. Equal values may be shown once.

System: human erythrocytes
Assay: human erythrocyte hemolytic activity
Type: cell-based
Conditions: 37° C., 30 minutes
Method: In order to evaluate the acute toxicities of the wasp extracts, the human erythrocyte hemolytic activities of the wasp extracts were evaluated, and the results of the evaluation are shown in Table 3 below. At this time, the hemolytic activity was evaluated according to a previous report (Son Ho-Yong et al., 2014, Korean J. Microbiol. Biotechnol. 42: 285-292). Briefly, 100 μl of human erythrocytes were washed three times with PBS and added to a 96-well microplate, and 100 μl of a sample solution at various concentrations was added thereto and then allowed to react at 37° C. for 30 minutes. Thereafter, the reaction solution was centrifuged at 1,500 rpm for 10 minutes, and 100 μl of the supernatant was transferred to a fresh microtiter plate, and then the degree of hemoglobin leakage following hemolysis was measured at 414 nm. DMSO (2%) was used as a solvent control for the sample, and Triton X-100 (1 mg/ml) was used as an experimental control for hemolysis of erythrocytes. Hemolytic activity was calculated using the following equation.
(%) Hemolysis=[(Abs. S−Abs. C)/(Abs. T−Abs. C)]×100
Abs. S: absorbance of sample-added group
Abs. C: absorbance of DMSO-added group
Abs. T: absorbance of Triton X-100-added group

| Compound | Human erythrocyte hemolytic activity (1.0 mg/ml) | Human erythrocyte hemolytic activity (0.0032 mg/ml) [%] | Human erythrocyte hemolytic activity (0.0063 mg/ml) [%] | Human erythrocyte hemolytic activity (0.0125 mg/ml) [%] | Human erythrocyte hemolytic activity (0.05 mg/ml) [%] | Human erythrocyte hemolytic activity (0.1 mg/ml) [%] |
| --- | --- | --- | --- | --- | --- | --- |
| Triton X-100 | 100% and 100.0 ± 0.1% | – | – | – | – | – |
| C[C@@H]1[C@H](O)[C@@H](C)/C=C/C=C/C=C/C=C/C=C/C=C/C=C/[C@H](O[C@@H]2O[C@H](C)[C@@H](O)[C@H](N)[C@@H]2O)C[C@@H]2O[C@](O)(C[C@@H](O)C[C@@H](O)[C@H](O)CC[C@@H](O)C[C@@H](O)CC(=O)O[C@H]1C)C[C@H](O)[C@H]2C(=O)O [Amphotericin B] | – | 6.54 ± 0.9 | 21.6 ± 3.7 | 48.2 ± 5.9 | 72.4 ± 5.2 | 95.8 ± 0.3 |
